Values quoted from earlier work in patent publication US5753436A, “Chemiluminescent energy transfer assays” (Tropix, Inc., priority 1995, dated 1998).

Test system: alkaline phosphatase

For `O=P(O)(O)Oc1ccc2nc(-c3nc4ccccc4s3)sc2c1` [AttoPhos], which Km is on record?
Its Km is 30 µM.

What about the turnover number (2.40M DEA (diethanolamine) pH 9.0, 0.23 mM MgCl2, 0.005% NaN by weight) of the same compound?
The turnover number was 85,400 molecules of AttoPhos per minu.
